Measurements published in PMC9721424, “Novel N-methylsulfonyl-indole derivatives: biological activity and COX-2/5-LOX inhibitory effect with improved gastro protective profile and reduced cardio vascular risks” (Journal of Enzyme Inhibition and Medicinal Chemistry, 2022).
Marks after values point to notes of the source that are not given here.

Tests used:
[1] = tested on: stomach; assay: Histopathological examination of stomach; type: in vivo, rats; settings: rat, in vivo
Description: In brief, the stomachs of each animal group’s rat were fixed in 10% neutral buffered formalin for 48 h. The sections were then dehydrated, cleared, fixed in paraffin, sectioned ([…]), and stained with H&E stain.

[2] = tested on: heart function biomarkers (LDH, CK-MB, and troponin); assay: Cardiac function biomarkers in rat serum; type: in vivo, rats; settings: 50 mg/kg/day p.o. for 2 weeks, mean ± SEM
Description: (§1) Eighteen rats were divided into three groups at random (6 animals in each group). The first group was given a vehicle and served as normal control. […] Ketamine (100 mg/kg) was used to anaesthetise the animals on the 15th day. Blood samples were obtained from the retro orbital, allowed to clot, centrifuged at 1000 g for 15 min, and utilised to examine heart function biomarkers (LDH, CK-MB, and troponin). The abdomen of each rat was opened, and the heart was extracted and washed in ice-cold physiological saline before being harnessed for histological investigation.

[3] = tested on: stomach mucosa; assay: Ulcerogenic liability (ulcer index); type: in vivo; settings: rats, 50 mg/kg dosage for three consecutive days, mean of 6 rats
Description: In this study, adult male Wister albino rats weighing 160–180 g were used. Before any experimental procedure, rats were given 14 days to acclimate. These rats were maintained in a controlled setting with food and water available. All experiments were conducted in accordance with laboratory animal care guidelines. All experimental procedures were carried out in accordance with the regulations of the Committee of Ethics for Scientific Research on Living Organisms, Faculty of Pharmacy, Nahda University, Beni-Suef (NUB). The approval number was (NUB-019–025). […] Before drug administration, rats were fasted for 18 h and then separated into four groups. The control group received a suspension of the vehicle (10% DMSO in saline was given P.O (100 mg/kg) once daily). […] Rats were given the required dose for three consecutive days. Following the last dose, the stomachs of each rat were dissected and opened via the greater curvature and rinsed with saline. For investigation, the dissected stomach was stretched with pins on a cork board. Through illuminated magnifying lenses, the stomach mucosa was examined for the existence of ulcers. Cho and Ogle’s method[45]^,[46] was used to calculate the ulcer index.

[4] = tested on: heart; assay: Histopathological examination of the heart; type: in vivo; settings: rats, two weeks administration, H&E stain
Description: as §1

[5] = antimicrobial and antifungal activity; cited from earlier work
[6] = tested on: Gram-positive bacteria, Gram-negative bacteria, and yeast fungus; assay: Disc diffusion antimicrobial screening, whole panel; type: cell-based; settings: all tested Gram-positive and Gram-negative bacteria, read-out: diameters of inhibition zones
Description: All compounds were screened for their antimicrobial activity at the Microbiology and Immunology Department, Faculty of Pharmacy, Beni-Suef University. The antimicrobial activity screening was carried out using the disc diffusion method, as described earlier, with some adjustments.
For each indicator microbe, a solution of half McFarland turbidity was prepared in sterile saline, followed by surface streaking of the strains on Mueller-Hinton agar with a sterile cotton swab. Then, sterile filter paper discs (5 mm diameter) preloaded with 100 µg of each compound were applied to the surface of the pre-inoculated plates. Then, the plates were chilled at 4 °C for 100 min before being incubated overnight at the proper temperature for microbial growth. Finally, the diameter of the inhibition zones around each disc was measured to evaluate the antimicrobial activity of the compounds. Ciprofloxacin was used as a standard antibacterial agent at a concentration of 20 µg/disc. Furthermore, DMSO-loaded discs were used as a negative control.

SMILES | stomach histopathology finding [1] | CK-MB [2] | LDH [2] | Troponin I [2] | Ulcer index [3] | Ulcer index ([3]; listed as celecoxib) | heart histopathology finding [4] | MIC [5] [mg/L] | zone of inhibition at 20 µg/disc [6] [mm]
Cc1ccc(-c2cc(C(F)(F)F)nn2-c2ccc(S(N)(=O)=O)cc2)cc1 [Celecoxib, reference compound] | multiple complete ulcers and superficial mucosal erosions with disrupted mucous layer | 0.635 ± 0.065^a ng/ml | 690 ± 08^a U/L | 0.1500 ± 0.0420^a ng/ml | 3.79^b | 3.79 | scattered inflamed cardiac muscle fibres with vacuolar degenerated myocytes |  | 
O=C(O)c1cn(C2CC2)c2cc(N3CCNCC3)c(F)cc2c1=O [ciprofloxacin] |  |  |  |  |  |  |  | < 3.90 | 34 to 48
